Measured values reported in the NIST ThermoML archive (doi:10.1016/j.jct.2016.10.034).

Assay: xn = mol fraction of the nth substance listed
Conditions: 100 kPa, Liquid; for viscosity: Falling or rolling sphere viscometry; for mass density: Vibrating tube method

CC[N+]1(C)CCCC1.O=C([O-])CO [1-ethyl-1-methylpyrrolidinium glycolate] + O
Conditions | mass density [kg/m3] | viscosity [mPa·s]
298.15 K, x1 = 0.0541 | 1057.7 | –
298.15 K, x1 = 0.1293 | 1100.6 | 11.8
298.15 K, x1 = 0.2024 | 1118.3 | 25.2
298.15 K, x1 = 0.2905 | 1127.2 | 46.2
298.15 K, x1 = 0.3464 | 1130 | 61.1
298.15 K, x1 = 0.4258 | 1132.3 | 84
298.15 K, x1 = 0.5357 | 1133.9 | 119
298.15 K, x1 = 0.6086 | 1134.3 | 145
298.15 K, x1 = 0.729 | 1134.7 | 195
298.15 K, x1 = 0.825 | 1134.5 | 241
298.15 K, x1 = 0.8839 | 1134.3 | 271
303.15 K, x1 = 0.0541 | 1055.1 | –
303.15 K, x1 = 0.1293 | 1097.2 | 9.63
303.15 K, x1 = 0.2024 | 1114.7 | 19.9
303.15 K, x1 = 0.2905 | 1123.6 | 37.2
303.15 K, x1 = 0.3464 | 1126.5 | 48.2
303.15 K, x1 = 0.4258 | 1128.8 | 65
303.15 K, x1 = 0.5357 | 1130.4 | 90.6
303.15 K, x1 = 0.6086 | 1130.9 | 110
303.15 K, x1 = 0.729 | 1131.3 | 146
303.15 K, x1 = 0.825 | 1131.1 | 179
303.15 K, x1 = 0.8839 | 1130.9 | 200
308.15 K, x1 = 0.0541 | 1052.3 | –
308.15 K, x1 = 0.1293 | 1093.7 | 8
308.15 K, x1 = 0.2024 | 1111.2 | 16.5
308.15 K, x1 = 0.2905 | 1120.1 | 30
308.15 K, x1 = 0.3464 | 1123 | 38.3
308.15 K, x1 = 0.4258 | 1125.4 | 51.4
308.15 K, x1 = 0.5357 | 1127 | 70.8
308.15 K, x1 = 0.6086 | 1127.5 | 85.4
308.15 K, x1 = 0.729 | 1127.9 | 112
308.15 K, x1 = 0.825 | 1127.7 | 137
308.15 K, x1 = 0.8839 | 1127.6 | 152
313.15 K, x1 = 0.0541 | 1049.5 | –
313.15 K, x1 = 0.1293 | 1090.3 | 6.75
313.15 K, x1 = 0.2024 | 1107.6 | 13.5
313.15 K, x1 = 0.2905 | 1116.6 | 23.5
313.15 K, x1 = 0.3464 | 1119.5 | 30.5
313.15 K, x1 = 0.4258 | 1121.9 | 41.3
313.15 K, x1 = 0.5357 | 1123.6 | 56.4
313.15 K, x1 = 0.6086 | 1124.1 | 67.6
313.15 K, x1 = 0.729 | 1124.6 | 87.7
313.15 K, x1 = 0.825 | 1124.4 | 106
313.15 K, x1 = 0.8839 | 1124.3 | 119
318.15 K, x1 = 0.0541 | 1046.6 | –
318.15 K, x1 = 0.1293 | 1086.8 | 5.69
318.15 K, x1 = 0.2024 | 1104 | 11.6
318.15 K, x1 = 0.2905 | 1113.1 | 20
318.15 K, x1 = 0.3464 | 1116 | 25.4
318.15 K, x1 = 0.4258 | 1118.5 | 33.8
318.15 K, x1 = 0.5357 | 1120.3 | 45.7
318.15 K, x1 = 0.6086 | 1120.8 | 54.2
318.15 K, x1 = 0.729 | 1121.3 | 70
318.15 K, x1 = 0.825 | 1121.1 | 83.6
318.15 K, x1 = 0.8839 | 1121 | 92.8
323.15 K, x1 = 0.0541 | 1043.7 | –
323.15 K, x1 = 0.1293 | 1083.3 | 4.85
323.15 K, x1 = 0.2024 | 1100.4 | 9.82
323.15 K, x1 = 0.2905 | 1109.6 | 16.4
323.15 K, x1 = 0.3464 | 1112.6 | 20.9
323.15 K, x1 = 0.4258 | 1115.2 | 27.7
323.15 K, x1 = 0.5357 | 1116.9 | 37.5
323.15 K, x1 = 0.6086 | 1117.5 | 44.5
323.15 K, x1 = 0.729 | 1118 | 56.6
323.15 K, x1 = 0.825 | 1117.9 | 67
323.15 K, x1 = 0.8839 | 1117.7 | 74.6
328.15 K, x1 = 0.0541 | 1040.6 | –
328.15 K, x1 = 0.1293 | 1079.8 | 4.34
328.15 K, x1 = 0.2024 | 1096.8 | 8.55
328.15 K, x1 = 0.2905 | 1106.1 | 13.9
328.15 K, x1 = 0.3464 | 1109.2 | 17.8
328.15 K, x1 = 0.4258 | 1111.8 | 23.3
328.15 K, x1 = 0.5357 | 1113.6 | 31.4
328.15 K, x1 = 0.6086 | 1114.2 | 37.2
328.15 K, x1 = 0.729 | 1114.8 | 46.8
328.15 K, x1 = 0.825 | 1114.6 | 55.7
328.15 K, x1 = 0.8839 | 1114.5 | 61.9
333.15 K, x1 = 0.0541 | 1037.5 | –
333.15 K, x1 = 0.1293 | 1076.2 | 4.12
333.15 K, x1 = 0.2024 | 1093.3 | 7.54
333.15 K, x1 = 0.2905 | 1102.6 | 12.5
333.15 K, x1 = 0.3464 | 1105.7 | 15.5
333.15 K, x1 = 0.4258 | 1108.5 | 20
333.15 K, x1 = 0.5357 | 1110.4 | 26.5
333.15 K, x1 = 0.6086 | 1111 | 31.1
333.15 K, x1 = 0.729 | 1111.5 | 38.8
333.15 K, x1 = 0.825 | 1111.4 | 45.5
333.15 K, x1 = 0.8839 | 1111.3 | 49.9
338.15 K, x1 = 0.0541 | 1034.3 | –
338.15 K, x1 = 0.1293 | 1072.7 | 3.87
338.15 K, x1 = 0.2024 | 1089.7 | 6.81
338.15 K, x1 = 0.2905 | 1099.2 | 10.6
338.15 K, x1 = 0.3464 | 1102.4 | 13.2
338.15 K, x1 = 0.4258 | 1105.1 | 16.8
338.15 K, x1 = 0.5357 | 1107.1 | 22.4
338.15 K, x1 = 0.6086 | 1107.7 | 26.1
338.15 K, x1 = 0.729 | 1108.3 | 32.6
338.15 K, x1 = 0.825 | 1108.3 | 38.1
338.15 K, x1 = 0.8839 | 1108.2 | 41.6
343.15 K, x1 = 0.0541 | 1031.1 | –
343.15 K, x1 = 0.1293 | 1069.1 | 3.58
343.15 K, x1 = 0.2024 | 1086.1 | 5.96
343.15 K, x1 = 0.2905 | 1095.7 | 9.03
343.15 K, x1 = 0.3464 | 1099 | 11.2
343.15 K, x1 = 0.4258 | 1101.8 | 14.5
343.15 K, x1 = 0.5357 | 1103.9 | 19.2
343.15 K, x1 = 0.6086 | 1104.6 | 22.4
343.15 K, x1 = 0.729 | 1105.2 | 27.9
343.15 K, x1 = 0.825 | 1105.1 | 32.4
343.15 K, x1 = 0.8839 | 1105.1 | 35.3
348.15 K, x1 = 0.0541 | 1027.6 | –
348.15 K, x1 = 0.1293 | 1065.5 | 3.55
348.15 K, x1 = 0.2024 | 1082.6 | 5.64
348.15 K, x1 = 0.2905 | 1092.9 | 7.83
348.15 K, x1 = 0.3464 | 1095.6 | 9.71
348.15 K, x1 = 0.4258 | 1098.6 | 12.5
348.15 K, x1 = 0.5357 | 1100.7 | 16.6
348.15 K, x1 = 0.6086 | 1101.4 | 19.3
348.15 K, x1 = 0.729 | 1102.1 | 24
348.15 K, x1 = 0.825 | 1102 | 27.7
348.15 K, x1 = 0.8839 | 1102 | 30.1
